Like-named read-outs stand apart in the source and are kept apart here.
Columns and labels:
[1] = cited from earlier work
[2] = 25° C.; cited from earlier work
[3] = solubility of PMIDA; format: physicochemical; conditions: room temperature
Description: The solubility of the PMIDA in the MSA and the ability of both the MSA and the PMIDA to remove acid-soluble materials of the present disclosure synergistically operate to continuously remove acid-soluble materials at deeper far-field locations than traditional acid fluids, which may become spent prior to reaching such deep areas.
In the working temperature range of the treatment fluid, as described above, the PMIDA may be solubilized in the MSA of the treatment fluids described herein. In some embodiments, the PMIDA is about 5% w/v soluble at room temperature in a solution of about 70% MSA in an aqueous base fluid, described below. In other embodiments, higher w/v concentrations of PMIDA may be prepared using varied solutions of MSA alone or in combination with an aqueous base fluid, which will undergo different dissolution amounts depending on the working temperature of the treatment fluid. Each of these values is critical to the embodiments described herein and may depend on a number of factors including, but not limited to, the working temperature of the treatment fluid (e.g., the temperature or temperature range of the subterranean formation being treated), the amount of MSA in the treatment fluid relative to the PMIDA, the amount of PMIDA in the treatment fluid relative to the MSA, and the like.

Row | Molecule | pKa ([1]; 25° C. in dimethyl sulfoxide) | pKa ([1]; 25° C. in water) | solubility in water [2] [µg/mL] | soluble in a solution of about 70% MSA in an aqueous base fluid [3]
1 | methanesulfonic acid [MSA] | about 1.6 | −1.9 | – | –
2 | O=C(O)CN(CC(=O)O)CP(=O)(O)O [PMIDA, N-(phosphonomethyl)iminodiacetic acid] | – | – | < 500 | about 5 % w/v
